# Measured values published in the supplement of paper PMC11061612.
# Key:
# Experiment in all cases: combination Emax (second highest fraction inhibited in the dose matrix, 72 h); higher = more inhibition; extreme values may be limits of the assay
# [1] = test system: NCI-H1573 (Lung Adenocarcinoma)
# Outline: (§1)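 Cell lines grown in DMEM/F12 or RPMI with 10% FBS were plated in 1536-well plates and held 24 hours at 37°C, 5% CO2 before 72 hours of exposure to two-drug dose matrices, with DMSO typically at 0.2%. CellTiter-Glo 2.0 luminescence gave viability, which was converted to inhibition. Vehicle wells were set to 0 and blank wells to 1. Combination Emax is the second-highest inhibition in the matrix, and Bliss excess is the observed combination effect minus the expected EA + EB − EA·EB, where EA and EB are the single-agent effects.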
# [2] = test system: KLE (Endometrial Carcinoma)
# Outline: as §1
# U-87-MG (Glioblastoma) = test system: U-87-MG (Glioblastoma)
# Outline: as §1
# [3] = test system: NCI-H2405 (Lung Adenocarcinoma)
# Outline: as §1
# [4] = test system: PFSK-1 (Other Solid Carcinomas)
# Outline: as §1
# [5] = test system: KP-2 (Pancreatic Carcinoma)
# Outline: as §1
# [6] = test system: NCI-H513 (Other Solid Carcinomas)
# Outline: as §1
# [7] = test system: H-EMC-SS (Chondrosarcoma)
# Outline: as §1
# [8] = test system: DG-75 (Burkitt's Lymphoma)
# Outline: as §1
# [9] = test system: NCI-H2347 (Lung Adenocarcinoma)
# Outline: as §1
# [10] = test system: KYSE-50 (Esophageal Squamous Cell Carcinoma)
# Outline: as §1
# IMR-5 (Neuroblastoma) = test system: IMR-5 (Neuroblastoma)
# Outline: as §1
# [11] = test system: HSC-2 (Oral Cavity Carcinoma)
# Outline: as §1
# [12] = test system: SCC-3 (B-Cell Non-Hodgkin's Lymphoma)
# Outline: as §1
# [13] = test system: OCUB-M (Breast Carcinoma)
# Outline: as §1
# [14] = test system: HuP-T3 (Pancreatic Carcinoma)
# Outline: as §1
# NB7 (Neuroblastoma) = test system: NB7 (Neuroblastoma)
# Outline: as §1
# [15] = test system: KU-19-19 (Bladder Carcinoma)
# Outline: as §1
# BT-20 (Breast Carcinoma) = test system: BT-20 (Breast Carcinoma)
# Outline: as §1
# [16] = test system: EMC-BAC-2 (Non-Small Cell Lung Carcinoma)
# Outline: as §1
Structure (SMILES),combination Emax [1],combination Emax [2],combination Emax (U-87-MG (Glioblastoma)),combination Emax [3],combination Emax [4],combination Emax [5],combination Emax [6],combination Emax [7],combination Emax [8],combination Emax [9],combination Emax [10],combination Emax (IMR-5 (Neuroblastoma)),combination Emax [11],combination Emax [12],combination Emax [13],combination Emax [14],combination Emax (NB7 (Neuroblastoma)),combination Emax [15],combination Emax (BT-20 (Breast Carcinoma)),combination Emax [16]
"CC(=O)Nc1cccc(-n2c(=O)n(C3CC3)c(=O)c3c(Nc4ccc(I)cc4F)n(C)c(=O)c(C)c32)c1 [Trametinib] + Cc1nc(-c2cn3c(n2)-c2ccc(-c4cnn(C(C)(C)C(N)=O)c4)cc2OCC3)n(C(C)C)n1 [Taselisib] (first compound max 1 µM, 7x7, partner max 10 µM)",0.89,0.619,0.837,0.665,0.604,0.74,0.757,0.991,0.307,0.618,0.757,0.368,1,0.736,1,0.741,0.577,1,1,0.945
"Cn1cnc2c(F)c(Nc3ccc(Br)cc3Cl)c(C(=O)NOCCO)cc21 [Selumetinib] + CCN(CCO)CCCOc1ccc2c(Nc3cc(CC(=O)Nc4cccc(F)c4)[nH]n3)ncnc2c1 [AZD2811] (first compound max 10 µM, 7x7, partner max 1 µM)",0.412,0.286,0.252,0.408,0.313,0.468,0.264,0.263,0.265,0.312,0.409,1,0.376,0.43,0.713,0.359,0.415,0.955,0.474,0.398
"C[C@@H](c1ccc2nccn2c1)n1nnc2ncc(-c3cnn(C)c3)nc21 [Savolitinib] + CC1(C)CCC(CN2CCN(c3ccc(C(=O)NS(=O)(=O)c4ccc(NCC5CCOCC5)c([N+](=O)[O-])c4)c(Oc4cnc5[nH]ccc5c4)c3)CC2)=C(c2ccc(Cl)cc2)C1 [Venetoclax] (first compound max 1 µM, 7x7, partner max 1 µM)",0.203,0.0864,0.252,0.038,0.302,0.148,0.0676,0.183,0.16,0.116,0.196,0.173,0.186,0.0971,0.116,0.0903,0.108,0.132,0.0828,0.0698
"COc1cccc(OCCCN)c1-c1cc(Nc2cnc(C#N)cn2)n[nH]1 [Prexasertib] + CCc1c2c(nc3ccc(O)cc13)-c1cc3c(c(=O)n1C2)COC(=O)[C@]3(O)CC [SN-38] (first compound max 1 µM, 7x7, partner max 0.3 µM)",0.777,0.593,0.74,0.626,0.815,0.837,0.695,0.574,0.957,0.879,0.904,1,0.95,1,0.989,0.855,0.985,0.959,0.965,0.657
"CC(=O)c1c(C)c2cnc(Nc3ccc(N4CCNCC4)cn3)nc2n(C2CCCC2)c1=O [Palbociclib] + Cc1c2c(nn1C)CSCc1cc(n(C)n1)CSc1cc(c3ccccc3c1)OCCCc1c(C(=O)O)n(C)c3c-2c(Cl)ccc13 [AZD5991] (first compound max 10 µM, 7x7, partner max 1 µM)",0.434,0.181,0.29,0.269,0.969,0.225,0.171,0.502,0.717,0.148,0.353,0.902,0.696,0.626,0.882,0.266,0.576,0.435,0.916,0.643
"CC1(C)CCC(CN2CCN(c3ccc(C(=O)NS(=O)(=O)c4ccc(NCC5CCOCC5)c([N+](=O)[O-])c4)c(Oc4cnc5[nH]ccc5c4)c3)CC2)=C(c2ccc(Cl)cc2)C1 [Venetoclax] + COc1cc(Nc2ncc3c(n2)-c2ccc(Cl)cc2C(c2c(F)cccc2OC)=NC3)ccc1C(=O)O [Alisertib] (first compound max 1 µM, 7x7, partner max 10 µM)",0.378,0.635,0.423,0.228,0.477,0.267,0.234,0.658,0.518,0.18,0.537,1,0.732,0.893,0.727,0.337,0.556,0.462,0.499,0.507
"NC1(C(=O)N[C@@H](CCO)c2ccc(Cl)cc2)CCN(c2ncnc3[nH]ccc23)CC1 [Capivasertib] + CC(=O)c1c(C)c2cnc(Nc3ccc(N4CCNCC4)cn3)nc2n(C2CCCC2)c1=O [Palbociclib] (first compound max 10 µM, 7x7, partner max 10 µM)",0.507,0.377,0.585,0.612,0.489,0.451,0.368,0.512,0.744,0.271,0.326,0.581,0.582,0.479,0.994,0.324,0.689,0.536,0.81,0.663
"CN(C)CCCOc1ccc(-c2ccc3ncc4c(c3c2)n(C2CCOCC2)c(=O)n4C)cn1 [AZD0156] + O=C(c1cc(Cc2n[nH]c(=O)c3ccccc23)ccc1F)N1CCN(C(=O)C2CC2)CC1 [Olaparib] (first compound max 3 µM, partner max 3 µM)",0.18,0.334,0.297,0.256,0.424,0.152,0.194,0.258,0.481,0.268,0.195,0.544,0.386,0.687,0.273,0.223,0.297,0.221,0.157,0.486
"CC1(C)CCC(CN2CCN(c3ccc(C(=O)NS(=O)(=O)c4ccc(NCC5CCOCC5)c([N+](=O)[O-])c4)c(Oc4cnc5[nH]ccc5c4)c3)CC2)=C(c2ccc(Cl)cc2)C1 [Venetoclax] + CN(C)CCCOc1ccc(-c2ccc3ncc4c(c3c2)n(C2CCOCC2)c(=O)n4C)cn1 [AZD0156] (first compound max 1 µM, 7x7, partner max 1 µM)",0.168,0.352,0.203,0.14,0.391,0.19,0.21,0.206,0.125,0.191,0.164,0.0957,0.722,0.157,0.749,0.145,0.18,0.135,0.132,0.25
"CN(CCO)CC[C@H](CSc1ccccc1)Nc1ccc(S(=O)(=O)NC(=O)c2ccc(N3CCC([C@@H](O)c4ccccc4-c4ccc(Cl)cc4)CC3)cc2)cc1S(=O)(=O)C(F)(F)F [AZD4320] + C1CN(CCC1(C(=O)N[C@@H](CCO)C2=CC=C(C=C2)Cl)N)C3=NC=NC4=C3C=CN4 [Capivasertib] (first compound max 1 µM, 7x7, partner max 3 µM)",0.575,0.206,0.311,0.224,0.568,0.842,0.122,0.753,0.266,0.362,0.0686,0.788,0.362,0.257,1,0.118,0.0214,0.174,0.84,0.301
"COc1cc2ncnc(Nc3ccc(F)c(Cl)c3)c2cc1OCCCN1CCOCC1 [Gefitinib] + CC(C)n1c(=O)n(C)c2cnc3cc(F)c(-c4ccc(OCCCN5CCCCC5)nc4)cc3c21 [AZD1390] (first compound max 10 µM, 7x7, partner max 0.3 µM)",0.162,0.442,0.0691,0.0242,0.265,0.0653,0.268,0.201,0.373,0.0611,0.334,0.123,0.555,0.348,0.154,0.14,0.136,0.0903,0.244,0.32
"NC1(C(=O)N[C@@H](CCO)c2ccc(Cl)cc2)CCN(c2ncnc3[nH]ccc23)CC1 [Capivasertib] + Cn1cnc2c(F)c(Nc3ccc(Br)cc3Cl)c(C(=O)NOCCO)cc21 [Selumetinib] (first compound max 10 µM, 7x7, partner max 10 µM)",0.495,0.484,0.685,0.573,0.516,0.454,0.409,0.797,0.398,0.423,0.298,0.168,0.721,0.363,0.998,0.464,0.28,0.921,0.809,0.622
